According to patent US20230133538A1, “TARGETED DEGRADERS OF ABERRANT TAU BASED ON THE PET TRACER PBB3” (DANA-FARBER CANCER INSTITUTE, INC., priority 2020, published 2023):

Columns and labels:
[1] = target: T1, tau protein in human tau-A152T neurons (Homo sapiens, UniProt P10636, A469T); experiment: Dose-effect on tau in tau-A152T neurons (Western blot, total tau TAU5 and P-Tau S396); assay type: cell-based; conditions: human tau-A152T neurons (6-week differentiated), 24 hours treatment, 1 μM or 10 μM
T1 construct: degrade tau protein in cultured human differentiated frontotemporal lobar dementia (FTD) neurons; endogenous in cells; host or cells: human differentiated FTD neurons, tau-A152T, 6-week differentiated
Protocol: (§1) Assays were performed according to protocols described in Silva et al., eLife, 8:e45457 (2019). Each of the bispecific compounds, along with the control parental scaffold, was evaluated for the ability to degrade tau protein in cultured human differentiated frontotemporal lobar dementia (FTD) neurons.
(§2) For each condition, 1 well of differentiated neuronal cells (6 well-plate) was washed and collected in PBS, pelleted and lysed in radioimmunoprecipitation assay (RIPA) buffer (Boston BioProducts) with 2% SDS (Sigma), protease inhibitors (Roche cOmplete™ Mini tablets), and phosphatase inhibitors (Sigma), followed by sonication in a water sonicator (Bransonic® Ultrasonic Baths, Thomas Scientific) for 5 minutes, and centrifugation at 20,000 g for 15 minutes. Supernatants were transferred to new tubes, total protein concentration was quantified with the Pierce™ BCA Protein Assay Kit (Thermo Scientific™), and SDS-PAGE gels were loaded with 10 μg total protein per well (pre-boiled samples). Western blots were performed with the Novex NuPAGE™ SDS-PAGE Gel System (Invitrogen™). All samples were resolved in 7% Tris-Acetate gels with Tris-Acetate running buffer (Invitrogen™). Blots were probed with antibodies against total tau (TAU5) and phosphorylated tau (Ser396), along with (3-actin as a loading control; followed by corresponding HRP-linked secondary antibodies (Cell Signaling Technology®), and SuperSignal™ West Pico Chemiluminescent Substrate (Thermo Scientific™) detection. Membranes were exposed to autoradiographic film (LabScientific) and films were scanned using an Epson® Perfection V800 Photo Scanner. Protein band intensities (pixel mean intensity) were quantified using Adobe Photoshop® CS5 Histogram function.
(§3) The vehicle alone (DMSO) had no effect on tau. However, varying degrading activity was observed among the specific compounds with overall similar relative levels of degrading activity between tau-A152T neurons and tau-P301L neurons. Bispecific compounds were added at the doses indicated (either 1 μM or 10 μM).

[2] = target: T2, tau protein in human tau-P301L neurons (Homo sapiens, UniProt P10636, P618L); experiment: Dose-effect on tau in tau-P301L neurons (Western blot, total tau TAU5 and P-Tau S396); assay type: cell-based; conditions: human tau-P301L neurons (6-week differentiated), 24 hours treatment, 1 μM or 10 μM
T2 construct: degrade tau protein in cultured human differentiated frontotemporal lobar dementia (FTD) neurons; endogenous in cells; host or cells: human differentiated FTD neurons, tau-P301L, 6-week differentiated
Protocol: as §1, §2, §3

T1 sequence (P10636 1-441 isoform P10636-8 A152T): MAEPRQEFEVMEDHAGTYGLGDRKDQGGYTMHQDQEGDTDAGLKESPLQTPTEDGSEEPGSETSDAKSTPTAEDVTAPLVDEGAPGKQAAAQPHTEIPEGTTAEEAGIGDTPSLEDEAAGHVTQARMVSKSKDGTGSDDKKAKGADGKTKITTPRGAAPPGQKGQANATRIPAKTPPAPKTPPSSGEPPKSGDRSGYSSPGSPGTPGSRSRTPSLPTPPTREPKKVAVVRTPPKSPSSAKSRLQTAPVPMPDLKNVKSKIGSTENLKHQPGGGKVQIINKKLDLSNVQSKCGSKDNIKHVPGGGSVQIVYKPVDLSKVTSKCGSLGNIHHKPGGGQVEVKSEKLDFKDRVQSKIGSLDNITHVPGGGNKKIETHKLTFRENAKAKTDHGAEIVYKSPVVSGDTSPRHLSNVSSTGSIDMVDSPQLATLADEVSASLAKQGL
T2 sequence (P10636 1-441 isoform P10636-8 P301L): as the sequence (P10636 1-441 isoform P10636-8 A152T) above, with T152A, P301L counted along it

| Compound | degradation of hyperphosphorylated tau and/or total tau [1] | degradation of hyperphosphorylated tau and/or total tau [2] |
| --- | --- | --- |
| Nc1cccc2c1CN(C1CCC(=O)NC1=O)C2=O (stereo not drawn) [Lenalidomide, reference compound] | no effect on tau levels | no effect on tau levels |
| CNc1ccc(/C=C/C=C/c2nc3ccc(OCCCCCCNC(=O)COc4cccc5c4C(=O)N(C4CCC(=O)NC4=O)C5=O)cc3s2)cn1 (stereo not drawn) [compound 2, 2-(2-(2,6-dioxopiperidin-3-yl)-1,3-dioxoisoindolin-4-yloxy)-N-(6-(2-((1E,3E)-4-(6-(methylamino)pyridin-3-yl)buta-1,3-dienyl)benzo[d]thiazol-6-yloxy)hexyl)acetamide] | significantly degraded | significantly degraded |
| CNc1ccc(/C=C/C=C/c2nc3ccc(OCCOCCOCCNC(=O)COc4cccc5c4C(=O)N(C4CCC(=O)NC4=O)C5=O)cc3s2)cn1 (stereo not drawn) [compound 4, 2-(2-(2,6-dioxopiperidin-3-yl)-1,3-dioxoisoindolin-4-yloxy)-N-(2-(2-(2-(2-((1E,3E)-4-(6-(methylamino)pyridin-3-yl)buta-1,3-dienyl)benzo[d]thiazol-6-yloxy)ethoxy)ethoxy)ethyl)acetamide] | significantly degraded | significantly degraded |
